Tested on: SK-BR-3 (HER2+) human tumor cell line
Test: Cell growth inhibition assay (SRB), SK-BR-3
Type: cell-based
Conditions: SK-BR-3, compared with 1
Protocol: Cell Growth Inhibition Assay. All stock cultures are grown in T-25 flasks. Freshly trypsinized cell suspensions were seeded in 96-well microliter plates with compounds added from DMSO-diluted stock. The plates were incubated for an additional 72 h after attachment and drug addition, and the assay was terminated by 10% TCA. Then, 0.4% SRB dye in 1% HOAc was added to stain the cells for 10 minutes. Unbound dye was removed by repeated washing with 1% HOAc and the plates were air dried. Bound stain was subsequently solved with 10 mM trizma base, and the absorbance read at 515 nm. Growth inhibition of 50% (GI50) is calculated as the drug concentration, which caused a 50% reduction in the net protein increase in control cells during the drug incubation. The mean ED50 is the concentration of agent that reduces cell growth by 50% under the experimental conditions and is the average from at least two independent determinations. Variation between replicates was no more than 5% of the mean. The following human tumor cell lines were used in the assay: A549 (non small cell lung cancer), ZR-75-1 (estrogen receptor positive breast cancer), MDA MB-231 (estrogen receptor negative breast cancer), SKBR-3 (estrogen receptor negative, HER-2 over-expressing breast cancer), KB (nasopharyngeal carcinoma), KB-VIN (vincristine-resistant KB subline). […]

Compound	potency against SK-BR-3 relative to 1
COc1cc(OC)cc(-c2cc3occ(C)c3c(=O)o2)c1 [Compound 25, 6-(3,5-Dimethoxyphenyl)-3-methyl-4H-furo[3,2-c]pyran-4-one]	approximately threefold

Tested on: not given
Test: not given
Conditions: not given

Compound	melting point
Cc1coc2cc(-c3ccccc3)oc(=O)c12 [Compound 9, 3-Methyl-6-phenyl-4H-furo[3,2-c]pyran-4-one]	105 to 107 °C
Cc1cccc(-c2cc3occ(C)c3c(=O)o2)c1 [Compound 10, 3-Methyl-6-m-tolyl-4H-furo[3,2-c]pyran-4-one]	135 to 137 °C
COc1cccc(-c2cc3occ(C)c3c(=O)o2)c1 [Compound 11, 6-(3-Methoxyphenyl)-3-methyl-4H-furo[3,2-c]pyran-4-one]	119 to 121 °C
CCOc1cccc(-c2cc3occ(C)c3c(=O)o2)c1 [Compound 12, 6-(3-Ethoxyphenyl)-3-methyl-4H-furo[3,2-c]pyran-4-one]	128 to 130 °C
Cc1coc2cc(-c3cccc(O)c3)oc(=O)c12 [Compound 13, 6-(3-Hydroxyphenyl)-3-methyl-4H-furo[3,2-c]pyran-4-one]	225 to 227 °C
Cc1coc2cc(-c3cccc(F)c3)oc(=O)c12 [Compound 14, 6-(3-Fluorophenyl)-3-methyl-4H-furo[3,2-c]pyran-4-one]	158 to 160 °C
Cc1coc2cc(-c3ccc(F)cc3)oc(=O)c12 [Compound 15, 6-(4-Fluorophenyl)-3-methyl-4H-furo[3,2-c]pyran-4-one]	175 to 177 °C
Cc1ccc(-c2cc3occ(C)c3c(=O)o2)cc1 [Compound 16, 3-Methyl-6-p-tolyl-4H-furo[3,2-c]pyran-4-one]	153 to 155 °C
COc1ccc(-c2cc3occ(C)c3c(=O)o2)cc1 [Compound 17, 6-(4-Methoxyphenyl)-3-methyl-4H-furo[3,2-c]pyran-4-one]	146 to 148 °C
Cc1coc2cc(-c3ccc(O)cc3)oc(=O)c12 [Compound 18, 6-(4-Hydroxyphenyl)-3-methyl-4H-furo[3,2-c]pyran-4-one]	258 to 260 °C
COc1cccc(-c2cc3occ(C)c3c(=O)o2)c1OC [Compound 19, 6-(2,3-Dimethoxyphenyl)-3-methyl-4H-furo[3,2-c]pyran-4-one]	111 to 113 °C
Cc1coc2cc(-c3cccc(O)c3O)oc(=O)c12 [Compound 20, 6-(2,3-Dihydroxyphenyl)-3-methyl-4H-furo[3,2-c]pyran-4-one]	239 to 241 °C
Cc1ccc(-c2cc3occ(C)c3c(=O)o2)cc1C [Compound 21, 6-(3,4-Dimethylphenyl)-3-methyl-4H-furo[3,2-c]pyran-4-one]	182 to 184 °C
COc1ccc(-c2cc3occ(C)c3c(=O)o2)cc1OC [Compound 22, 6-(3,4-Dimethoxyphenyl)-3-methyl-4H-furo[3,2-c]pyran-4-one]	154 to 156 °C
Cc1coc2cc(-c3ccc(O)c(O)c3)oc(=O)c12 [Compound 23, 6-(3,4-Dihydroxyphenyl)-3-methyl-4H-furo[3,2-c]pyran-4-one]	259 to 261 °C
Cc1cc(C)cc(-c2cc3occ(C)c3c(=O)o2)c1 [Compound 24, 6-(3,5-Dimethylphenyl)-3-methyl-4H-furo[3,2-c]pyran-4-one]	171 to 173 °C
COc1cc(OC)cc(-c2cc3occ(C)c3c(=O)o2)c1 [Compound 25, 6-(3,5-Dimethoxyphenyl)-3-methyl-4H-furo[3,2-c]pyran-4-one]	153 to 155 °C
Cc1coc2cc(-c3cc(O)cc(O)c3)oc(=O)c12 [Compound 26, 6-(3,5-Dihydroxyphenyl)-3-methyl-4H-furo[3,2-c]pyran-4-one]	> 300 °C
COc1cc(-c2cc3occ(C)c3c(=O)o2)cc(OC)c1OC [Compound 27, 3-Methyl-6-(3,4,5-trimethoxyphenyl)-4H-furo[3,2-c]pyran-4-one]	201 to 203 °C
CCc1coc2cc(-c3cc(OC)cc(OC)c3)oc(=O)c12 [Compound 28, 6-(3,5-Dimethoxyphenyl)-3-ethyl-4H-furo[3,2-c]pyran-4-one]	131 to 133 °C
COc1cc(OC)cc(-c2cc3oc(C)c(C)c3c(=O)o2)c1 [Compound 29, 6-(3,5-Dimethoxyphenyl)-2,3-dimethyl-4H-furo[3,2-c]pyran-4-one]	163 to 165 °C
COc1cc(OC)cc(-c2cc3occ(C)c3c(=S)o2)c1 [Compound 30, 6-(3,5-Dimethoxyphenyl)-3-methyl-4H-furo[3,2-c]pyran-4-thione]	147 to 149 °C

Source: patent US20110275707A1, “SUBSTITUTED AFPO (6-ARYL-4H-FURO[3,2-C]PYRAN-4-ONE) DERIVATIVES AS ANTI-CANCER AGENTS” (priority 2008, published 2011)
